Legend:
Set-up in all cases: key: 0: normal development; 1: Less damaged; 2: Slightly damaged; 3: Moderately damaged; 4: Severely damaged; 5: All killed
bulrush = experiment: Herbicidal test for paddy field; assay type: in vivo, Scrips juncoides; conditions: paddy field pot, 500 g/ha dropwise at 1.5 leaf stage of barnyardgrass, 3 weeks, rank vs non-treated
Summary of the method: (§1)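 Ube alluvial soil in pots flooded to 3 cm water depth, sown with seeds or tubers. Wettable powder diluted in water with 0.05% surfactant was dripped onto the water at 500 g/ha when barnyardgrass reached the 1.5-leaf stage. After 3 weeks in a glasshouse at an average of 25° C, damage was scored 0 (normal) to 5 (all killed) against untreated pots.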

flat sedge = experiment: Herbicidal test for paddy field; assay type: in vivo, Cyperus serotinus; conditions: paddy field pot, 500 g/ha dropwise at 1.5 leaf stage of barnyardgrass, 3 weeks, rank vs non-treated
Summary of the method: as §1

monochoria = experiment: Herbicidal test for paddy field; assay type: in vivo, Monochoria vaginalis; conditions: paddy field pot, 500 g/ha dropwise at 1.5 leaf stage of barnyardgrass, 3 weeks, rank vs non-treated
Summary of the method: as §1

corn = experiment: Soil treatment test for upland field; assay type: in vivo; conditions: 500 g/ha, glass house 25° C., 3 weeks
Summary of the method: (§2)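 Compounds were formulated as wettable powders and applied pre-emergence to the surface of freshly sown alluvial soil at 500 g/ha. After three weeks in a glass house averaging 25° C, damage was rated from 0 (normal development) to 5 (all killed).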

cotton [1] = experiment: Soil treatment test for upland field; assay type: in vivo; conditions: 500 g/ha, glass house 25° C., 3 weeks
Summary of the method: as §2

solgum = experiment: Soil treatment test for upland field; assay type: in vivo; conditions: 500 g/ha, glass house 25° C., 3 weeks
Summary of the method: as §2

soybean [2] = experiment: Soil treatment test for upland field; assay type: in vivo; conditions: 500 g/ha, glass house 25° C., 3 weeks
Summary of the method: as §2

sugar beat = experiment: Soil treatment test for upland field; assay type: in vivo; conditions: 500 g/ha, glass house 25° C., 3 weeks
Summary of the method: as §2

wheat = experiment: Soil treatment test for upland field; assay type: in vivo; conditions: 500 g/ha, glass house 25° C., 3 weeks
Summary of the method: as §2

Large crabgrass [3] = experiment: Soil treatment test for upland field; assay type: in vivo, Digitaria adscendens; conditions: 500 g/ha, glass house 25° C., 3 weeks
Summary of the method: as §2

livid amaranth = experiment: Soil treatment test for upland field; assay type: in vivo, Amaranthus lividus; conditions: 500 g/ha, glass house 25° C., 3 weeks
Summary of the method: as §2

cotton [4] = experiment: Foliar spread test for upland field; assay type: in vivo; conditions: foliar spray 500 ppm, 3 weeks, rank vs non-treated
Summary of the method: (§3)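 Crop seeds sown in volcanic ash soil in Wagner pots were raised about 2 weeks in a glasshouse, then sprayed with wettable-powder formulations diluted to 500 ppm in water with 0.5% surfactant. After 3 weeks at an average 25° C., injury was scored 0 (normal) to 5 (all killed).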

soybean [5] = experiment: Foliar spread test for upland field; assay type: in vivo; conditions: foliar spray 500 ppm, 3 weeks, rank vs non-treated
Summary of the method: as §3

Large crabgrass [6] = experiment: Foliar spread test for upland field; assay type: in vivo, Digitaria adscendens; conditions: foliar spray 500 ppm, 3 weeks, rank vs non-treated
Summary of the method: (§4)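 Post-emergence foliar spray, 500 ppm (wettable powder in water + 0.5% surfactant), on ~2-week-old plants grown in volcanic ash soil; glasshouse, avg 25° C, 3 wk; visual damage score 0–5.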

barnyardgrass = experiment: Foliar spread test for upland field; assay type: in vivo, Echinochloa crusgalli; conditions: foliar spray 500 ppm, 3 weeks, rank vs non-treated
Summary of the method: as §4

CCC(Oc1cccc(C(F)(F)F)c1)c1nc2cc(F)ccc2o1 (stereo not drawn) [Compound 120]
Effect Bulrush (bulrush): 3
Effect Flat sedge (flat sedge): 2
Effect Monochoria (monochoria): 5
Effects Corn (corn): 0
Effects Cotton (cotton [1]): 0
Effects Solgum (solgum): 1
Effects Soybean (soybean [2]): 0
Effects Sugar beat (sugar beat): 3
Effects Wheat (wheat): 0
Effects Large crabgrass (Large crabgrass [3]): 5
Effects Livid amaranth (livid amaranth): 3
Effects Cotton (cotton [4]): 2
Effects Soybean (soybean [5]): 5
Effects Large crabgrass (Large crabgrass [6]): 1
Effects Barnyardgrass (barnyardgrass): 1

CCC(Oc1cccc(C(F)(F)F)c1)c1nc2cc(Br)ccc2o1 (stereo not drawn) [Compound 166]
Effect Flat sedge (flat sedge): 4
Effect Monochoria (monochoria): 5
Effects Corn (corn): 0
Effects Cotton (cotton [1]): 0
Effects Solgum (solgum): 0
Effects Soybean (soybean [2]): 0
Effects Sugar beat (sugar beat): 5
Effects Wheat (wheat): 0
Effects Large crabgrass (Large crabgrass [3]): 5
Effects Livid amaranth (livid amaranth): 5
Effects Cotton (cotton [4]): 2
Effects Soybean (soybean [5]): 4
Effects Large crabgrass (Large crabgrass [6]): 3
Effects Barnyardgrass (barnyardgrass): 1

CCC(Oc1ccc(F)c(C(F)(F)F)c1)c1nc2cc([N+](=O)[O-])ccc2o1 (stereo not drawn) [Compound 177]
Effect Bulrush (bulrush): 5
Effect Flat sedge (flat sedge): 3
Effect Monochoria (monochoria): 5
Effects Corn (corn): 2
Effects Cotton (cotton [1]): 2
Effects Solgum (solgum): 2
Effects Soybean (soybean [2]): 1
Effects Sugar beat (sugar beat): 5
Effects Wheat (wheat): 2
Effects Large crabgrass (Large crabgrass [3]): 5
Effects Livid amaranth (livid amaranth): 5
Effects Cotton (cotton [4]): 3
Effects Soybean (soybean [5]): 5
Effects Large crabgrass (Large crabgrass [6]): 2
Effects Barnyardgrass (barnyardgrass): 2

CCC(Oc1cccc(C(F)(F)F)c1)c1nc2cc(C#N)ccc2o1 (stereo not drawn) [Compound 190]
Effect Flat sedge (flat sedge): 3
Effect Monochoria (monochoria): 5
Effects Corn (corn): 2
Effects Cotton (cotton [1]): 5
Effects Solgum (solgum): 2
Effects Soybean (soybean [2]): 0
Effects Sugar beat (sugar beat): 5
Effects Wheat (wheat): 2
Effects Large crabgrass (Large crabgrass [3]): 5
Effects Livid amaranth (livid amaranth): 5
Effects Cotton (cotton [4]): 3
Effects Soybean (soybean [5]): 5
Effects Large crabgrass (Large crabgrass [6]): 3
Effects Barnyardgrass (barnyardgrass): 3

CCCC(Oc1cccc(C(F)(F)F)c1)c1nc2cc(C#N)ccc2o1 (stereo not drawn) [Compound 192]
Effect Bulrush (bulrush): 4
Effect Flat sedge (flat sedge): 4
Effect Monochoria (monochoria): 5
Effects Corn (corn): 2
Effects Cotton (cotton [1]): 1
Effects Solgum (solgum): 2
Effects Soybean (soybean [2]): 0
Effects Sugar beat (sugar beat): 5
Effects Wheat (wheat): 2
Effects Large crabgrass (Large crabgrass [3]): 5
Effects Livid amaranth (livid amaranth): 5
Effects Cotton (cotton [4]): 3
Effects Soybean (soybean [5]): 3
Effects Large crabgrass (Large crabgrass [6]): 3
Effects Barnyardgrass (barnyardgrass): 2

CCC(Oc1ccc(F)c(C(F)(F)F)c1)c1nc2cc(F)c(F)cc2o1 (stereo not drawn) [Compound 284]
Effect Bulrush (bulrush): 4
Effect Flat sedge (flat sedge): 4
Effect Monochoria (monochoria): 5
Effects Corn (corn): 2
Effects Cotton (cotton [1]): 1
Effects Solgum (solgum): 2
Effects Soybean (soybean [2]): 2
Effects Sugar beat (sugar beat): 5
Effects Wheat (wheat): 2
Effects Large crabgrass (Large crabgrass [3]): 5
Effects Livid amaranth (livid amaranth): 5
Effects Cotton (cotton [4]): 3
Effects Soybean (soybean [5]): 5
Effects Large crabgrass (Large crabgrass [6]): 4
Effects Barnyardgrass (barnyardgrass): 1

CCC(Oc1ccc(F)c(C(F)(F)F)c1)c1nc2cc(Cl)c(C)cc2o1 (stereo not drawn) [Compound 340]
Effect Bulrush (bulrush): 4
Effect Flat sedge (flat sedge): 2
Effect Monochoria (monochoria): 5
Effects Corn (corn): 2
Effects Cotton (cotton [1]): 0
Effects Solgum (solgum): 3
Effects Soybean (soybean [2]): 0
Effects Sugar beat (sugar beat): 5
Effects Wheat (wheat): 1
Effects Large crabgrass (Large crabgrass [3]): 5
Effects Livid amaranth (livid amaranth): 5
Effects Cotton (cotton [4]): 3
Effects Soybean (soybean [5]): 3
Effects Large crabgrass (Large crabgrass [6]): 4
Effects Barnyardgrass (barnyardgrass): 2

CCC(Oc1ccc(Cl)c(C(F)(F)F)c1)c1nc2cc(F)ccc2o1 (stereo not drawn) [Compound 441]
Effect Flat sedge (flat sedge): 2
Effect Monochoria (monochoria): 5
Effects Corn (corn): 0
Effects Cotton (cotton [1]): 0
Effects Solgum (solgum): 1
Effects Soybean (soybean [2]): 0
Effects Sugar beat (sugar beat): 5
Effects Wheat (wheat): 1
Effects Large crabgrass (Large crabgrass [3]): 5
Effects Livid amaranth (livid amaranth): 5
Effects Cotton (cotton [4]): 3
Effects Soybean (soybean [5]): 3
Effects Large crabgrass (Large crabgrass [6]): 2
Effects Barnyardgrass (barnyardgrass): 2

CCC(Oc1cccc(OC(F)(F)F)c1)c1nc2cc([N+](=O)[O-])ccc2o1 (stereo not drawn) [Compound 450]
Effect Bulrush (bulrush): 4
Effect Flat sedge (flat sedge): 3
Effect Monochoria (monochoria): 5
Effects Corn (corn): 2
Effects Cotton (cotton [1]): 2
Effects Solgum (solgum): 2
Effects Soybean (soybean [2]): 1
Effects Sugar beat (sugar beat): 5
Effects Wheat (wheat): 1
Effects Large crabgrass (Large crabgrass [3]): 5
Effects Livid amaranth (livid amaranth): 5
Effects Cotton (cotton [4]): 5
Effects Soybean (soybean [5]): 4
Effects Large crabgrass (Large crabgrass [6]): 4
Effects Barnyardgrass (barnyardgrass): 3

From patent US6706664B1, “Benzoxazole compounds, process for the preparation thereof and herbicides” (UBE Industries, Ltd., priority 1999, dated 2004)
